Data published in article PMC4640232 (The Journal of Organic Chemistry, 2015).

Molecular target: concanavalin A (ConA) (Canavalia ensiformis, UniProt P02866)
Assay: isothermal titration calorimetry
Type: binding

concanavalin A (ConA), sequence (P02866 164-281 limits assumed): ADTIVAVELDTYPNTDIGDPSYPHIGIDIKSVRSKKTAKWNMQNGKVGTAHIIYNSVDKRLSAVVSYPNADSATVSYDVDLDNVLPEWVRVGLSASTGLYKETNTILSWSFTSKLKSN
concanavalin A (ConA), sequence (P02866 30-148 limits assumed): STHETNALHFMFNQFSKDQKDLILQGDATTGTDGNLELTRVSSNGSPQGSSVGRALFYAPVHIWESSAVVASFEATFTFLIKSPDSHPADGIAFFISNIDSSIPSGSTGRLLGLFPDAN

Structure (SMILES)	Kd
CO[C@H]1O[C@H](CO)[C@@H](O)[C@H](O)[C@@H]1O [methyl α-mannoside]	4.65 µM
CCCO[C@@H]1O[C@H](CO[C@H]2O[C@H](CO)[C@@H](O)[C@H](O)[C@@H]2O)[C@@H](O)[C@H](O[C@H]2O[C@H](CO)[C@@H](O)[C@H](O)[C@@H]2O)[C@@H]1O [compound 12, n-Propyl 3,6-Di-O-(α-D-mannopyranosyl)-β-D-mannopyranoside]	3.27 µM
